Values of other authors in patent US6844014B1, “Herbal healing lotion for veterinary use” (priority 2002, dated 2005).

Conditions: treatment by previous veterinarian before the office visit

In the case of `C[C@]12CCC(=O)C=C1CC[C@@H]1[C@@H]2C(=O)C[C@@]2(C)[C@H]1CC[C@]2(O)C(=O)CO` [cortisone], the “result of previous treatment of the lesion” value is listed as “no positive result was obtained”.
